The values below are quoted from earlier work in US10058559B2, “Treatment or prevention of an intestinal disease or disorder” (The United States of America, as represented by the …, priority 2014, dated 2018).

The conditions of data set [1]: in vivo; cited from earlier work.
In the next data set the target is T1, GAK (Homo sapiens, UniProt O14976).
T1 sequence (O14976 1-1311): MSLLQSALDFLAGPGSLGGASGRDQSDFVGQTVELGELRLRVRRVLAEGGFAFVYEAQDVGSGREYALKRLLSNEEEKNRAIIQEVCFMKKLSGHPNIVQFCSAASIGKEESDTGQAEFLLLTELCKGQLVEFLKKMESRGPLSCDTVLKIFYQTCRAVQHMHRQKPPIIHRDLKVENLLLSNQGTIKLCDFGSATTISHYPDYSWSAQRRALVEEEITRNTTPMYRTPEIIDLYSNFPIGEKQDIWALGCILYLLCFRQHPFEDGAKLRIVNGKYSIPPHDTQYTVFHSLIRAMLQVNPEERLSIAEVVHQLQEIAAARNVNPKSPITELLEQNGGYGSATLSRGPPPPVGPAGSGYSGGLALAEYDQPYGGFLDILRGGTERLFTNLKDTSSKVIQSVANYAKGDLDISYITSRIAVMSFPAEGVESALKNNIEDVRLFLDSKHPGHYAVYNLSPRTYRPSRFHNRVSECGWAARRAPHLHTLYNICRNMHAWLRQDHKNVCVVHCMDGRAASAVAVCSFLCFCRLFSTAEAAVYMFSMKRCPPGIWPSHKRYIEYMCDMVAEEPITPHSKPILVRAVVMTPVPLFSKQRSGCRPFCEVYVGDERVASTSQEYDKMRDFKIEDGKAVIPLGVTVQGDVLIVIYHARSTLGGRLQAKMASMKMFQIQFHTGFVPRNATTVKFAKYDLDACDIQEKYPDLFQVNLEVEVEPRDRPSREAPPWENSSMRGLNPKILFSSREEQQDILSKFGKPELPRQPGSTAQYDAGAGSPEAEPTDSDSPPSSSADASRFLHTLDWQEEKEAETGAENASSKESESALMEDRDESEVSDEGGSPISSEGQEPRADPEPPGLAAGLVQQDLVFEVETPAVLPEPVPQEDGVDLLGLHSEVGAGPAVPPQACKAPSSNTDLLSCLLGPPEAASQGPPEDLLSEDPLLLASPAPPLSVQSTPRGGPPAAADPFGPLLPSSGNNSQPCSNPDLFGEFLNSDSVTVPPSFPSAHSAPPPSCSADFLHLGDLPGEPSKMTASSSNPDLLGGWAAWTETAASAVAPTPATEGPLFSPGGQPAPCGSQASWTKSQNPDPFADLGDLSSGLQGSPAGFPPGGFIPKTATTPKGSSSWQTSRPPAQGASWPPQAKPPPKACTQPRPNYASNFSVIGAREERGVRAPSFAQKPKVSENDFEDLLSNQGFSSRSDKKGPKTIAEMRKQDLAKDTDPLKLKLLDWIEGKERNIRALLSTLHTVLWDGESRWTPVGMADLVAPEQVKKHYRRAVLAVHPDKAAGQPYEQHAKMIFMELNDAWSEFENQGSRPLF
The note with it: 185-kinase panel; cited from earlier work.

In another data set the target is T2, PIP4K2C (Homo sapiens, UniProt Q8TBX8).
T2 sequence (Q8TBX8 1-421): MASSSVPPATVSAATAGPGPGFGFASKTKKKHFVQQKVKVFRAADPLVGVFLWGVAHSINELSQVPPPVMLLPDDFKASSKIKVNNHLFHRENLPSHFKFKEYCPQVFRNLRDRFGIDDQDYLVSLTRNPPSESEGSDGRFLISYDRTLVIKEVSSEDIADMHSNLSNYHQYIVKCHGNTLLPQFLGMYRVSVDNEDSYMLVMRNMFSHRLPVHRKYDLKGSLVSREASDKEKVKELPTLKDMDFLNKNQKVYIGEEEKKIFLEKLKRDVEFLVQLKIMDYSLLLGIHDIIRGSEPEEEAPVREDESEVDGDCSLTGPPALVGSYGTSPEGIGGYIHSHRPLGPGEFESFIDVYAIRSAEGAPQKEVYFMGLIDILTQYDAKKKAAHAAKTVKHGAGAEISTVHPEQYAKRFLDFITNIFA
Conditions: 185-kinase panel; cited from earlier work.

In another data set the target is T3, PLK4 (Homo sapiens, UniProt O00444).
T3 sequence (O00444 1-970): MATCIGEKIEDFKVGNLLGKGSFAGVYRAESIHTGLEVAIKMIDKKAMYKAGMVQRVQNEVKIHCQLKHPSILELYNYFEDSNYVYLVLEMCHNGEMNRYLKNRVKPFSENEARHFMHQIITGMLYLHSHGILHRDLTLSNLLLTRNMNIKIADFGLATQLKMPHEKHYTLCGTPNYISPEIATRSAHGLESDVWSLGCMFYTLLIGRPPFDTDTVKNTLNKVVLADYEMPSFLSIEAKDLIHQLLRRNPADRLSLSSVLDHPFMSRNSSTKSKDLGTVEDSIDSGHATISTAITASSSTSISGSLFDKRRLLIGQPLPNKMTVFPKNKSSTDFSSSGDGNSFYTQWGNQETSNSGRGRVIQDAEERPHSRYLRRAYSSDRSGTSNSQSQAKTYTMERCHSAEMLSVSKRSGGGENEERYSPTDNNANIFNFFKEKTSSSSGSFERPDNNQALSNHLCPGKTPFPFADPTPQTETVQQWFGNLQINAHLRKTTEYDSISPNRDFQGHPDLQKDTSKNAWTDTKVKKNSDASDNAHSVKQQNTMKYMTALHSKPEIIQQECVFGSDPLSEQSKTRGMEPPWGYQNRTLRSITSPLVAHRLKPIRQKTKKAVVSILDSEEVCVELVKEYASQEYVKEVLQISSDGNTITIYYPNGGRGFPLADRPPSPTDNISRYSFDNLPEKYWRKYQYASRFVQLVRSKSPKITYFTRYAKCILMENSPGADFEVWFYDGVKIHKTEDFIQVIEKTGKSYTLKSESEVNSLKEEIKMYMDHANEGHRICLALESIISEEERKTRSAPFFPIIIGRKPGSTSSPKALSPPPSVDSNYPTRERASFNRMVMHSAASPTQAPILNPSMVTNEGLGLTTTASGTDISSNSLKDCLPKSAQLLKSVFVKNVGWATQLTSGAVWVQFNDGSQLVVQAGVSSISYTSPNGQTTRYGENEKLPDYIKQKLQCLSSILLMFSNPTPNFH
The note with it: 185-kinase panel; cited from earlier work.

In a further data set the target is CAMKK2 (Homo sapiens, UniProt Q96RR4). The note with it: 185-kinase panel; cited from earlier work.
Chain of CAMKK2 (Q96RR4 whole entry, species assumed): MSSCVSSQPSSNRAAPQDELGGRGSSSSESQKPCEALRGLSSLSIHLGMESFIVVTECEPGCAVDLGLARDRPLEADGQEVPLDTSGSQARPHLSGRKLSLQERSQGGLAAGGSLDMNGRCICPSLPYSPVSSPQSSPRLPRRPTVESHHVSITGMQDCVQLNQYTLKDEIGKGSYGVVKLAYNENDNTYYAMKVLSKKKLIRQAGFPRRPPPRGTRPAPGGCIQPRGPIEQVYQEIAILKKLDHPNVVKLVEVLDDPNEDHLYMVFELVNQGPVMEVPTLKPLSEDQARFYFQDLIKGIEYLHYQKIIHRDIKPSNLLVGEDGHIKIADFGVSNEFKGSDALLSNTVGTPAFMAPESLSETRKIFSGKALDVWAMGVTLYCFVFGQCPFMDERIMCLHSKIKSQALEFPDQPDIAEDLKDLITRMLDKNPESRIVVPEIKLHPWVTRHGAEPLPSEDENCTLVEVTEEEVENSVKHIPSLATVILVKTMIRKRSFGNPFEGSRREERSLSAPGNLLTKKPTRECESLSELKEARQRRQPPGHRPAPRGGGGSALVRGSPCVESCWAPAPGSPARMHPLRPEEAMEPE
A further data set deals with T4, TNK1 (Homo sapiens, UniProt Q13470).
T4 sequence (Q13470 1-666): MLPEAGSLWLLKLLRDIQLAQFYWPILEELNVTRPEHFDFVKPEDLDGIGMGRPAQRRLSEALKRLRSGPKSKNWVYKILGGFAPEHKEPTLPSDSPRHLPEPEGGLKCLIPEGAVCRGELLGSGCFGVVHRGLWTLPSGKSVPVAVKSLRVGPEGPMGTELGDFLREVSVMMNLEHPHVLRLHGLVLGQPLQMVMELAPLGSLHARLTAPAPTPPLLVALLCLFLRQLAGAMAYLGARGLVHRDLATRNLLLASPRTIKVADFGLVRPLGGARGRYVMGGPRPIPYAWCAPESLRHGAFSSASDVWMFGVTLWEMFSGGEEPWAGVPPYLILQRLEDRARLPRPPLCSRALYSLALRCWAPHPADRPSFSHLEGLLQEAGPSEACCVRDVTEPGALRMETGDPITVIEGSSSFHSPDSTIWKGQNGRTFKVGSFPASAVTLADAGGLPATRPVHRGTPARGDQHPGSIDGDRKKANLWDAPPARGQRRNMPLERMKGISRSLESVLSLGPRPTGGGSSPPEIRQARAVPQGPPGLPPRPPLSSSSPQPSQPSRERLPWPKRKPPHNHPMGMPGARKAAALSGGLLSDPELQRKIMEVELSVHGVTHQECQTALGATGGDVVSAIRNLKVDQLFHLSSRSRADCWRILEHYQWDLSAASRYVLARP
The note with it: 185-kinase panel; cited from earlier work.

Turning to `COc1cc(N2CCOCC2)ccc1Nc1ncc(F)c(Nc2ccccc2NS(C)(=O)=O)n1.Cl` [CZC-25146, N-(2-(5-Fluoro-2-(2-methoxy-4-morpholinophenylamino)pyrimidin-4-ylamino)phenyl)methanesulfonamide, HCl], the oral bioavailability entry in data set [1] is reported as “orally bioavailable”. Further, the half-inhibitory concentration (IC50) on GAK, on PIP4K2C, on PLK4, on CAMKK2 and at TNK1 was under 300 nM in each case.
